What all share (type): biochemical
The target of one test is CDK1/CCNB1 (Homo sapiens, UniProt P06493). The experiment in a line: CDK1 homogeneous time-resolved fluorescence (HTRF) kinase assay. As to conditions: CDK1/CCNB. The method, boiled down:
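CDK1/CCNB1 0.5 nM + cpd, 20 min 23 °C; add 1 mM ATP, 50 nM ULight-4E-BP1 peptide, 60 min 23 °C; stop 10 mM EDTA; 2 nM Eu-Ab, 60 min; HTRF 665 nm. 11-pt half-log, top 10 μM typical; IC50.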

The target in another test is CDK6/CCND1 (Homo sapiens, UniProt Q00534). The test is described as follows: CDK6 homogeneous time-resolved fluorescence (HTRF) kinase assay. The note with it: CDK6/CCND, 1 mM ATP. In outline: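 Recombinant CDK6/CCND1 (1 nM final) was preincubated with compound for 20 min at 23 °C in HEPES buffer with MgCl2, EGTA, DTT and Tween 20. Kinase reaction then ran 60 min at 23 °C with 1 mM ATP and 50 nM ULight-4E-BP1 (Thr37/46) peptide, and was stopped with EDTA.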
Sequence of CDK6/CCND1 (Q00534 whole entry): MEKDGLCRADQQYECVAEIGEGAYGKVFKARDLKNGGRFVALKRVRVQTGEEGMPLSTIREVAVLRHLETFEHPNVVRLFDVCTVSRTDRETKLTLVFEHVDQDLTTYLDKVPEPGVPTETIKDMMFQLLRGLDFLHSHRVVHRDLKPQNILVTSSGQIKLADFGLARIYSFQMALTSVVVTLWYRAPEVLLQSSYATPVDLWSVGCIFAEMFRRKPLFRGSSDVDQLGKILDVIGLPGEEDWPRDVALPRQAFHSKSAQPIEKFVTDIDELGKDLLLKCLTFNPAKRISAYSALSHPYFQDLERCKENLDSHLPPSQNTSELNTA
Sequence of CDK6/CCND1 (P24385 whole entry partner): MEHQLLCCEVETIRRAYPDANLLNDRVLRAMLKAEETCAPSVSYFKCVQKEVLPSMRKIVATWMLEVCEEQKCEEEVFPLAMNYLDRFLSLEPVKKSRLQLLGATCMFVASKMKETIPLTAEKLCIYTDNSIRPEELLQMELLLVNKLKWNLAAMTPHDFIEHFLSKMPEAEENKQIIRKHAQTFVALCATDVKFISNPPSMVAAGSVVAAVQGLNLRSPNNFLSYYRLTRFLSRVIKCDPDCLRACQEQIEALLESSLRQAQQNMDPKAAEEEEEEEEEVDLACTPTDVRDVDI
A general note: TR-FRET usually uses a lanthanide donor and a delayed reading to cut background.

The next test concerns the target CDK4/CCND3 (Homo sapiens, UniProt P11802). The test is described as follows: CDK4 homogeneous time-resolved fluorescence (HTRF) kinase assay. As to conditions: CDK4/CCND. In outline: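 IC50 values were derived from 11-point half-log dilutions, usually starting at 10 μM. Compound was first held for 20 min at 23 °C with 1.5 nM CDK4/CCND3. 1 mM ATP and 50 nM ULight-eIF4E-BP1 (Thr37/46) substrate were then added for 60 min, and the TR-FRET 665 nm signal was measured after EDTA stop and Eu-anti-phospho-4E-BP1 detection.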

Another test concerns the target CDK2/CCNE1 (Homo sapiens, UniProt P24941). The experiment in a line: CDK2 homogeneous time-resolved fluorescence (HTRF) kinase assay. As to conditions: CDK2/CCNE. In outline: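 TR-FRET read-out (665 nm, or 665/615 ratio) of Eu-antibody detection of phospho-4E-BP1 (Thr37/46) ULight peptide. Enzyme 3 nM, ATP 1 mM, peptide 50 nM, 1% DMSO; 60 min reaction at 23 °C after 20 min compound preincubation. IC50 from 11-point half-log titrations, top typically 10 μM.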

Where [1] appears, read: >250 nM, read-out: CDK6/CCND IC50, >250 nM.
[2] abbreviates: >250 nM, read-out: CDK4/CCND IC50, >250 nM.
Setting [3] is: <25 nM, read-out: CDK2/CCNE IC50, <25 nM.
Where [4] appears, read: >250 nM, read-out: CDK1/CCNB IC50 >250 nM.
[5] abbreviates: 25-250 nM, read-out: CDK6/CCND IC50, 25-250 nM.
The mark [6] stands for this setting: 25-250 nM, read-out: CDK4/CCND IC50, 25-250 nM.
[7] abbreviates: 25-250 nM, read-out: CDK2/CCNE IC50, 25-250 nM.

Read-outs that look alike come from different tables or passages of the source.

Sequence of CDK1/CCNB1 (P06493 whole entry): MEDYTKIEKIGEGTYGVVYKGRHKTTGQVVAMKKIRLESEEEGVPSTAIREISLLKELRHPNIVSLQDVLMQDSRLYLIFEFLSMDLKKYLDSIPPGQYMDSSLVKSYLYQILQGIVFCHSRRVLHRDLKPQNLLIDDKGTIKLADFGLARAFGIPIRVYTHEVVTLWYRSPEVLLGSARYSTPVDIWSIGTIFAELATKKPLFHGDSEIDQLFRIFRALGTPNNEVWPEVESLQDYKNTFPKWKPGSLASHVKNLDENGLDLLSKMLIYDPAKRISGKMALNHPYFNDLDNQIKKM
Sequence of CDK1/CCNB1 (P14635 whole entry partner): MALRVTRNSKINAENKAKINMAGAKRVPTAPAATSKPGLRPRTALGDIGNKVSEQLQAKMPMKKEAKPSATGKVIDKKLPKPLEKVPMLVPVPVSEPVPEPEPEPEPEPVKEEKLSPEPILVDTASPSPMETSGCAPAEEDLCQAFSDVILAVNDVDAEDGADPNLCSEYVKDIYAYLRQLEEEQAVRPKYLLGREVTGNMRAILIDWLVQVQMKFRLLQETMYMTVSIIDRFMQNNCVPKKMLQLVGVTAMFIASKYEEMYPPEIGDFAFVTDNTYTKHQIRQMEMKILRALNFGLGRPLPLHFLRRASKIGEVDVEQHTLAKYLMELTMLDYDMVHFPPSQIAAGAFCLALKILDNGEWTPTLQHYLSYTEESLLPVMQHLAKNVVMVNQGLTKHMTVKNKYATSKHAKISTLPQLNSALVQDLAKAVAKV
Sequence of CDK4/CCND3 (P11802 whole entry): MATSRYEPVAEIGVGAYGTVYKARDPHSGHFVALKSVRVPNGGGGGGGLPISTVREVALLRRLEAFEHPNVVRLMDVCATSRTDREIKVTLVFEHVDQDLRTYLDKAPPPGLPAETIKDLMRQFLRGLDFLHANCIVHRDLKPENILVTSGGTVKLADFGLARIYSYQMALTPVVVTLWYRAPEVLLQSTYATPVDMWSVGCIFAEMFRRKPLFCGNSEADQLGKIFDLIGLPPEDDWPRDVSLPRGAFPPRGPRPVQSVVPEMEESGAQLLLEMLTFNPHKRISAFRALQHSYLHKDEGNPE
Sequence of CDK4/CCND3 (P30281 whole entry partner): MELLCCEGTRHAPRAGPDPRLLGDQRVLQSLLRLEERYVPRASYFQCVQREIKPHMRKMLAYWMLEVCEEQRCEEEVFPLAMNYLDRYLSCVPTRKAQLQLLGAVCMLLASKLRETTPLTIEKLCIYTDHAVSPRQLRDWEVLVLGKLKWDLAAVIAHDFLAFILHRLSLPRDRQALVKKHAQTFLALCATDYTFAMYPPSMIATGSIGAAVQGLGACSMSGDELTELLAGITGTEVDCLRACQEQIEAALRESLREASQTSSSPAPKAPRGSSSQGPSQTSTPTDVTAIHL

Take `Cc1c(-c2nccc3cnc(Nc4ccc(S(=O)(=O)Nc5cccc(C(F)(F)F)n5)cc4)cc23)ccc2c1cnn2CC(C)(C)O` [Ex 815, 4-((5-(1-(2-hydroxy-2-methylpropyl)-4-methyl-1H-indazol-5-yl)-2,6-naphthyridin-3-yl)amino)-N-(6-(trifluoromethyl)pyridin-2-yl)benzenesulfonamide]: the IC50 was 25 to 250 nM on CDK1/CCNB1 (25-250 nM, read-out: CDK1/CCNB IC50, 25-250 nM); more than 250 nM on CDK6/CCND1 (setting [1]); more than 250 nM on CDK4/CCND3 (setting [2]); less than 25 nM on CDK2/CCNE1 (setting [3]).

For `Cc1c(-c2nccc3cnc(Nc4ccc(S(=O)(=O)Nc5cc(C(F)(F)F)ccn5)cc4)cc23)ccc2c1cnn2CC(C)(C)O` [Ex 816, 4-((5-(1-(2-hydroxy-2-methylpropyl)-4-methyl-1H-indazol-5-yl)-2,6-naphthyridin-3-yl)amino)-N-(4-(trifluoromethyl)pyridin-2-yl)benzenesulfonamide], the IC50 on CDK1/CCNB1 (setting [4]) was more than 250 nM; on CDK6/CCND1 (setting [1]), more than 250 nM; on CDK4/CCND3 (setting [2]) it was more than 250 nM; at CDK2/CCNE1 (setting [3]) it was less than 25 nM.

With `Cc1cccc(NS(=O)(=O)c2ccc(Nc3cc4c(-c5ccc6c(cnn6CC(C)(C)O)c5C)nccc4cn3)cc2)n1` [Ex 817, 4-((5-(1-(2-hydroxy-2-methylpropyl)-4-methyl-1H-indazol-5-yl)-2,6-naphthyridin-3-yl)amino)-N-(6-methylpyridin-2-yl)benzenesulfonamide], the IC50 is more than 250 nM at CDK1/CCNB1 (setting [4]), 25 to 250 nM at CDK6/CCND1 (setting [5]), 25 to 250 nM on CDK4/CCND3 (setting [6]) and less than 25 nM at CDK2/CCNE1 (setting [3]).

Regarding `Cc1cc(C)nc(NS(=O)(=O)c2ccc(Nc3cc4c(-c5ccc6c(cnn6CC(C)(C)O)c5C)nccc4cn3)cc2)c1` [Ex 818, N-(4,6-dimethylpyridin-2-yl)-4-((5-(1-(2-hydroxy-2-methylpropyl)-4-methyl-1H-indazol-5-yl)-2,6-naphthyridin-3-yl)amino)benzenesulfonamide], the IC50 was more than 250 nM on CDK1/CCNB1 (setting [4]), 25 to 250 nM on CDK6/CCND1 (setting [5]), 25 to 250 nM at CDK4/CCND3 (setting [6]) and less than 25 nM on CDK2/CCNE1 (setting [3]).

For `Cc1c(-c2nccc3cnc(Nc4ccc(NS(=O)(=O)c5cccc6nsnc56)cc4)cc23)ccc2c1cnn2CC(C)(C)O` [Ex 819, N-(4-((5-(1-(2-hydroxy-2-methylpropyl)-4-methyl-1H-indazol-5-yl)-2,6-naphthyridin-3-yl)amino)phenyl)benzo[c][1,2,5]thiadiazole-4-sulfonamide], the IC50 at CDK1/CCNB1 (setting [4]) is more than 250 nM; at CDK6/CCND1 (setting [1]), more than 250 nM; on CDK4/CCND3 (setting [2]) it was more than 250 nM; at CDK2/CCNE1 (setting [7]) it was 25 to 250 nM.

As to `Cc1c(-c2nccc3cnc(Nc4ccc(NS(=O)(=O)c5cccc6nn(C)cc56)cc4)cc23)ccc2c1cnn2CC(C)(C)O` [Ex 820, N-(4-((5-(1-(2-hydroxy-2-methylpropyl)-4-methyl-1H-indazol-5-yl)-2,6-naphthyridin-3-yl)amino)phenyl)-2-methyl-2H-indazole-4-sulfonamide], the IC50 on CDK1/CCNB1 (setting [4]) was more than 250 nM; at CDK6/CCND1 (setting [1]), more than 250 nM; on CDK4/CCND3 (setting [2]), more than 250 nM; on CDK2/CCNE1 (setting [7]), 25 to 250 nM.

Take `Cc1c(-c2nccc3cnc(Nc4ccc(NS(=O)(=O)c5cccc6nonc56)cc4)cc23)ccc2c1cnn2CC(C)(C)O` [Ex 821, N-(4-((5-(1-(2-hydroxy-2-methylpropyl)-4-methyl-1H-indazol-5-yl)-2,6-naphthyridin-3-yl)amino)phenyl)benzo[c][1,2,5]oxadiazole-4-sulfonamide]: the IC50 at CDK1/CCNB1 (setting [4]) is more than 250 nM; on CDK6/CCND1 (setting [1]) it was more than 250 nM; on CDK4/CCND3 (setting [2]), more than 250 nM; at CDK2/CCNE1 (setting [3]), less than 25 nM.

Turning to `Cc1c(-c2nccc3cnc(Nc4ccc(NS(=O)(=O)c5cncc(Cl)c5)cc4)cc23)ccc2c1cnn2CC(C)(C)O` [Ex 822, 5-chloro-N-(4-((5-(1-(2-hydroxy-2-methylpropyl)-4-methyl-1H-indazol-5-yl)-2,6-naphthyridin-3-yl)amino)phenyl)pyridine-3-sulfonamide], the IC50 at CDK1/CCNB1 (setting [4]) is more than 250 nM; on CDK6/CCND1 (setting [1]), more than 250 nM; at CDK4/CCND3 (setting [2]), more than 250 nM; on CDK2/CCNE1 (setting [3]), less than 25 nM.

Source of the values: patent US20260325533A1, “CDK INHIBITOR COMPOUNDS” (ALEKSIA THERAPEUTICS, INC., priority 2023, published 2026).
